Patent publication US20250011881A1, “MYC-HSF1 DUAL AMPLIFICATION AS A BIOMARKER FOR CANCER TREATMENT” (The Trustees of Indiana University, priority 2023, published 2025)
Where “and” joins values, the source holds several entries; their conditions need not be identical. Identical values can stand only once.

Tests used:
[1] = system: ovarian cancer cells with (OVCAR8, OVCAR4) or without (OVSAHO, CAOV3) MYC-HSF1 amplification; assay: Epigenetic inhibitor drug screen, cell viability (Cell Titer Blue); type: cell-based; settings: 10 uM, 48 hrs, average relative cell viability (vs 1% DMSO) of non-amplified cells (OVSAHO, CAOV3) minus that of MYC-HSF1 amplified cells (OVCAR8, OVCAR4), positive = greater response in amplified cells, 10 µM
[2] = system: MYC and HSF1 protein in OVCAR8 cells; assay: Immunoblot of MYC and HSF1 after entinostat; type: cell-based; settings: OVCAR8, 24 hours
Experimental: FIG. 6C and FIG. 6D are immunoblots of OVCAR8 cells treated with entinostat at the indicated doses for 24 hours. Total protein from the cells was subjected to immunoblotting with the indicated antibodies.
Immunoblotting and co-immunoprecipitation was performed as described above. Antibodies for immunoblotting and immunoprecipitation included MYC (CST), HSF1 (CST), GAPDH (CST). […] Through the innovative method of screening potential therapeutics against cells having dual amplification of MYC and HSF1, Applicant was able to identify potential therapeutic targets, HDAC inhibitors, and therapeutics having increased efficacy against these cancer cells.

[3] = system: HSF1 and MYC target genes in OVCAR8; assay: RT-qPCR of HSF1 and MYC target genes after entinostat; type: cell-based; settings: OVCAR8, 24 hrs
Experimental: FIG. 6B is a bar graph depicting mRNA relative fold change in OVCAR8 cells treated with entinostat at the indicated doses for 24 hours. Total RNA from the cells was subjected to RT-qPCR or the indicated transcripts.
Results of this screen indicated 45 of the top 54 hits were compounds that targeted histone deacetylases (HDACs). (Table 1). To test the effect of HDAC inhibitors on cell lines having dual copy number gain in both MYC and HSF1, we treated OVCAR8 (positive for MYC-HSF1 amplification) for 24 hrs with an HDAC inhibitor, etinostat. Total RNA from treated cells was subjected to RTqPCR. To conduct the RTqPCR, RNA was extracted from cells using an RNA isolation kit with DNAse treatment (Zymo). RNA was subjected to reverse transcription using RT Master Mix (Applied Biosystems). qPCR was performed with SYBR Green Master Mix (Applied Biosystems) using a QuantStudio3 (Applied Biosystems). Experiments were performed in biological triplicate and analyzed using the […].

[4] = system: cell lines without dual amplification (OVSAHO, CAOV3, PEO1, OVCAR3); assay: Volasertib IC50, cell viability, non-amplified cell lines; type: cell-based; settings: average of OVSAHO, read-out: IC50 in non-amplified cells
Experimental: (§1) PLK1 is an active therapeutic target with several compounds targeting this kinase inPLK1 inhibitor that has shown promise as an effective cancer therapy in early phase clinical trials (Rudolph et al. Clin Cancer Res 2009; 15:3094-102;Pujade-Lauraine et al. J Clin Oncol 2016;34:706-13; Xie et al. Am J Cancer Res 2015;5:3548-59). […] To assess whether a PLK1 inhibitor has specificity for MYC-HSFIdual-amplified ovarian cancer cells, the IC50 for volasertib was assessed in cell lines with dual amplification (OVCAR8, SNU119, OVCAR4, and COV362) and in cell lines without dual amplification (OVSAHO, CAOV3, PEO1, OVCAR3).
(§2) The effectiveness of volasertib on MYC-HSF1 dual amplified cancer cells was also analyzed in several cell growth models. […] Cell viability assays were performed with Cell Titer Blue (Promega) as we previously described (Carpenter et al. Oncotarget 2017;8:73947-63). Clonogenic growth assays were performed by seeding <1000 cells into 6-well plates and staining with crystal violet after 7 days of growth. Colonies were quantified using FIJI.

[5] = Body weight of tumor-bearing nude mice; type: in vivo; settings: 15 or 20 mg/kg twice per week for five weeks
Experimental: (§3) FIG. 5D represents OVCAR8 cells (5e5) grown in the flank of nude mice until a volume between 50-100 mm^3 were achieved. Mice were then randomized to receive either vehicle, 15mg/kg, or 20 mg/kg volasertib twice per week. Tumor volume was measured with calipers (FIG. 5D) and body weight was measured (FIG. 5E) throughout the study.
(§4) Lastly, we evaluated the efficacy of the PLK1 inhibitor, volasertib, on tumor growth in vivo. OVCAR8 cells (5e5) were injected into the flank of nude mice and tumors were allowed to develop until 50-100 mm^3. Mice then received either vehicle (PBS) or 15 or 20 mg/kg volasertib twice per week for five weeks. Body weight and tumor volume were measured twice per week.

[6] = system: OVCAR8 cells in the flank of nude mice; assay: OVCAR8 flank tumor growth in nude mice; type: in vivo; settings: 15 or 20 mg/kg twice per week for five weeks
Experimental: as §3, §4

[7] = system: MYC-HSF1 dual amplified cells (OVCAR8, OVCAR4, SNU119); assay: Clonogenic growth assay; type: cell-based; settings: 7 days, crystal violet
Experimental: FIG. 5A depicts bar graphs showing clonogenic growth observed for OVCAR8, OVCAR4 and SNU119 cell lines subjected to the indicated dose of volasertib (BI-6727). Control cells were subjected to 1% DMSO instead of volasertib. Colonies were grown for 7 days prior to staining with crystal violet and quantification was completed with FIJI software.
as §2

[8] = system: OVCAR8 (MYC-HSF1 co-amplified) cells; assay: Tumor spheroid growth, co-amplified cells; type: cell-based; settings: OVCAR8, 7 days
Experimental: FIG. 5B and FIG. 5C represent OVCAR8 (MYC-HSF1 co-amplified) and CAOV3 (non-amplified) cells subjected to tumor spheroid growth in the presence or absence of volasertib at the indicated doses. Spheroids were quantified by manual counting. The impact volasertib on spheroid growth in the two different cell lines is shown photographically (FIG. 5B) and graphically (FIG. 5C).
Ovarian cancer cells (1000-2000) were seeded into 24-well ultra-low attachment plates (Corning) and grown in serum-free spheroid media as we previously described (Wang et al., Mol Cancer Ther 2021). Spheroids were grown in the presence or absence of volasertib for 7 days. Spheroids were quantified by manual counting.

[9] = system: MYC and HSF1 protein in OVCAR8 cells; assay: Immunoblot time course of MYC and HSF1 protein after volasertib; type: cell-based; settings: OVCAR8, volasertib 1 nM, 0 to 18 hours
Experimental: (§5) Considering PLK1 phosphorylation previously indicated affects the protein stability of MYC and HSF1, it was tested whether volasertib affects MYC or HSF1 protein levels. A time course study was performed where samples were treated with volasertib for time ranges of 0 to 18hours. […] Similarly, the effect of volasertib was tested on the activity of HSF1 using an HSE luciferase reporter.
Immunoblotting and Immunoprecipitation: Immunoblotting and co-immunoprecipitation was performed as we have previously described (Lu et al., bioRxiv 2020:2020.08.31.275909). Antibodies for immunoblotting and immunoprecipitation included MYC (CST), HSF1 (CST), β-actin (CST), GAPDH (CST), FLAG (Sigma), and p-HSF1 (S326) (Abcam).

ovarian cancer patients = settings: cited from earlier work
[10] = system: cell lines with dual amplification (OVCAR8, SNU119, OVCAR4, and COV362); assay: Volasertib IC50, cell viability, MYC-HSF1 dual amplified cell lines; type: cell-based
Experimental: as §1, §2

[11] = system: HSF1 activity in OVCAR8 cells; assay: HSE luciferase reporter assay; type: cell-based; settings: OVCAR8, volasertib 1 nM, increasing time of treatment
Experimental: FIG. 4E is a bar graph representing OVCAR8 cells subjected to HSE luciferase assay with treatment of volasertib (1 nM) for the indicated times.
as §5
Luciferase Reporter Assays: Luciferase reporter assays were performed as we previously described (Lu et al. bioRxiv 2020:2020.08.31.275909). The HSF1 activity reporter contains multiple heat shock element (HSE) motifs driving firefly luciferase. Experiments were performed with co-transfection of a constitutively active renilla reporter. Analysis was completed by dividing firefly activity by renilla activity.

[12] = single agent, ovarian cancer patients

SMILES	Non Amp - AMP (POC) 10 uM ([1]; listed as Entinostat (MS-275, SNDX-275))	Non Amp - AMP (POC) 10 uM ([1]; listed as MS-275 (entinostat))	protein levels of MYC and HSF1 [2]	levels of HSF1 and MYC target genes (mRNA) [3]	IC50 [4]	body weight [5]	tumor growth in vivo [6]	clonogenic growth [7]	spheroid growth, MYC-HSF1 dual amplified cells [8]	MYC and HSF1 protein levels [9]	toxicity and safety for use in humans (ovarian cancer patients; early phase clinical trials)	24-week disease control rate (ovarian cancer patients; [12])	patients with partial responses (ovarian cancer patients; [12])	patients with progression-free survival for more than one year (ovarian cancer patients; single agent, none in patients receiving cytotoxic chemotherapy)	IC50 ([10]; average of OVCAR8, SNU119, OVCAR4, COV362, read-out: IC50 for volasertib in MYC-HSF1 dual amplified cells)	fold difference of IC50, non-amplified vs MYC-HSF1 dual amplified cells ([10]; enhanced efficacy in dual amplified ovarian cancer cells)	HSF1 activity (HSE luciferase reporter) [11]
Nc1ccccc1NC(=O)c1ccc(CNC(=O)OCc2cccnc2)cc1 [Entinostat]	52.31 POC	65.06 POC	reduced protein levels of both MYC and HSF1	significantly reduced levels of HSF1 and MYC target genes													
CC[C@@H]1C(=O)N(C)c2cnc(Nc3ccc(C(=O)N[C@H]4CC[C@H](N5CCN(CC6CC6)CC5)CC4)cc3OC)nc2N1C(C)C [volasertib]					7.8 µM	no change in body weight	strongly regress tumor growth	strong inhibition of clonogenic growth	inhibit spheroid growth	loss of MYC and HSF1 protein after 3hours of volasertib exposure	favorable toxicity and safety	30%	13%	11%	33 nM	> 200 fold and 200 fold	increasing inhibition of HSF1 activity
